What was measured:
[1] = tested on: PC9 and PC9/ER cell lines; test: apoptosis analysis by annexin V / propidium iodide flow cytometry (FACS); type: cell-based; settings: RNAiMax transfection, 48 hours, versus miRNA control
Protocol: After 48 hours of additional culture, the cells were treated with FITC fluorescent dye-labeled annexin V and propidium iodide (PI) and analyzed by flow cytometry (FACS).

[2] = tested on: proteins involved in the EGFR signaling pathway; test: Western blot analysis of proteins involved in the EGFR signaling pathway; type: cell-based
From the text: It is known that the EGFR signaling pathway in the lung cancer cell lines used in the Examples is activated due to the presence of mutation in the EGFR protein and activation of the EGFR signaling pathway plays an important role in the survival of the cell lines.

[3] = tested on: 3′ UTR of EGFR mRNA; test: luciferase assay with EGFR 3′ UTR firefly luciferase vector in HEK cells; type: cell-based, human
From the text: Since miRNA inhibits protein production from target mRNA by binding to the 3′ UTR (untranslated region) of the target mRNA, luciferase assay is generally used as a method of directly measuring the relationship between miRNA and the target mRNA. Using the TargetScan software, a 3′ UTR sequence comprising a miRNA binding sequence was predicted. The predicted 3′ UTR sequence was cloned into the 3′ UTR of firefly luciferase by a gene cloning technique. The constructed vector and the miRNA of interest were co-transfected into human embryonic kidney (HEK) cells, and the luciferase expression level of the vector was measured. […] At this time, in order to correct the transfection efficiency, Renilla luciferase was also transfected to correct the measurement value. After co-transfection of the miRNA, firefly luciferase and Renilla luciferase, the cells were cultured for 48 hours, and then the luciferase activity was measured using a luminometer.

[4] = tested on: EGFR mRNA; test: RT-qPCR relative expression level of EGFR mRNA; type: cell-based; settings: PC9, PC9/ER, H1975 and H596, versus negative control
[5] = tested on: lung cancer cell lines H2009, H596, H1650, PC9, PC9/GR, H1975, HCC827, and A549; test: miRNA library screening, inhibition of proliferation (CellTiter-Glo); type: cell-based; settings: 40 nM miRNA with RNAiMax, 96 hours, eight lung cancer cell lines
Protocol: Using the same miRNA library used in Korean Patent Application No. 10-2016-0022462, an experiment was performed to screen miRNAs that induce apoptosis of lung cancer cell lines. The lung cancer cell lines used in the experiment are as follows: H2009, H596, H1650, PC9, PC9/GR, H1975, HCC827, and A549 (purchased from the ATCC or the Korean Cell Line Bank). Each of the cell lines was seeded into a 96-well plate and treated with 40 nM of each miRNA together with the transfection reagent RNAiMax (Invitrogen), and the miRNA was delivered into the cells. After 96 hours of additional culture, the relative growth of the cells was measured using CellTiter-Glo reagent (Promega) (FIGS. 1 to 4).

[6] = tested on: PC9 cell line; test: relative cell viability (CellTiter-Glo), erlotinib-sensitive line; type: cell-based; settings: PC9, 96 hours
Protocol: (§1) After 96 hours of additional culture, the relative viability of the cells was measured. These cell lines were used because they have genetic characteristics and drug resistance as follows. […] On the other hand, PC9/GR and PC9/ER contain delE764-A750 mutation, like PC9, and have T790M mutation. […] H1975 has L858R and T790M mutations, H596 has overexpressed EGFR, and H1650 has delE764-A750 mutation. […] The cell viability was measured using the CellTiter-Glo used in Example 1.

[7] = tested on: PC9/GR, PC9/ER, H1975, H596 and H1650 cell lines having resistance to erlotinib; test: relative cell viability (CellTiter-Glo), erlotinib-resistant lines; type: cell-based; settings: cell lines having resistance to erlotinib (EGFR T790M etc.), 96 hours
Protocol: as §1, with “measured.” for “measured. These cell lines were used because they have genetic characteristics and drug resistance as follows.”

[8] = Western blot, versus control group

| Compound | number of dead cells (annexin V/PI) [1] | inhibition of pEGFR and ERK phosphorylation, apoptosis (PARP) by Western blot ([2]; PC9 cell line) | amount of ERK, an activated form of the ERK protein ([2]; Western blot) | expression level of phosphorylated EGFR [2, 8] | expression level of the EGFR protein [2, 8] | inhibition of pEGFR and ERK phosphorylation, apoptosis (PARP) by Western blot ([2]; other cell lines having erlotinib resistance due to EGFR T790M mutation) | luciferase activity, EGFR 3′UTR vector ([3]; HEK cells, co-transfection, 48 hours, Renilla-corrected) | luciferase activity, EGFR 3′UTR with mutations in target regions ([3]; mutations EGFR 3′UTR 250-256, 2288-2295, and 3476-3482 nt) | expression of EGFR mRNA [4] | inhibition of cell proliferation (relative growth of the cells) [5] | concentration at which cells could be killed [6] | concentration at which apoptosis of the cells could be induced [7] |
| --- | --- | --- | --- | --- | --- | --- | --- | --- | --- | --- | --- | --- |
| miR-544a: double-stranded miRNA consisting of SEQ ID NO: 1 (5'-AUUCUGCAUUUUUAGCAAGUUC-3') and SEQ ID NO: 2 (5'-ACUUGCUAAAAAUGCAGAAUUU-3') (listed as RNA, chemistry not given here) | significantly higher than that in the cell line treated with the miRNA control | inhibit activated EGFR (pEGFR) and inhibit phosphorylation of the downstream signaling factor ERK | decreased | also decreased compared to that in the control group | significantly decreased compared to that in the control group | only miR-544a exhibits this effect | each target mRNA was controlled directly by the miRNA | the expression inhibition phenomenon by the miRNA disappeared | decreased in all the cell lines used in the experiment | excellent effect against the cell lines used |  |  |
| C#Cc1cccc(Nc2ncnc3cc(OCCOC)c(OCCOC)cc23)c1 [erlotinib] |  |  |  |  |  |  |  |  |  |  | 0.1 µM | 10 µM |

— patent US11820984B2, “Double-helix oligonucleotide construct comprising double-stranded miRNA and use thereof” (BIONEER CORPORATION, priority 2018, dated 2023)
